Measured values: patent US12240862B2, “Inhibitors of peptidylarginine deiminases” (Gilead Sciences, Inc., priority 2020, dated 2025)

What follows are molecules tested against T1, human PAD4 (Homo sapiens, UniProt Q9UM07) (assay: In vitro PAD4 BAEE biochemical assay). Conditions: human PAD4, BAEE substrate; 5 nM PAD4, 2 mM calcium chloride, 3 mM BAEE; geometric mean of multiple experiments.
T1 construct: human PAD4 (NM_012387), A2P663, was PCR amplified; His-SUMO (N, cleaved yes); made in house; host or cells: E. coli BL21(DE3)
T1 sequence (Q9UM07 2-663): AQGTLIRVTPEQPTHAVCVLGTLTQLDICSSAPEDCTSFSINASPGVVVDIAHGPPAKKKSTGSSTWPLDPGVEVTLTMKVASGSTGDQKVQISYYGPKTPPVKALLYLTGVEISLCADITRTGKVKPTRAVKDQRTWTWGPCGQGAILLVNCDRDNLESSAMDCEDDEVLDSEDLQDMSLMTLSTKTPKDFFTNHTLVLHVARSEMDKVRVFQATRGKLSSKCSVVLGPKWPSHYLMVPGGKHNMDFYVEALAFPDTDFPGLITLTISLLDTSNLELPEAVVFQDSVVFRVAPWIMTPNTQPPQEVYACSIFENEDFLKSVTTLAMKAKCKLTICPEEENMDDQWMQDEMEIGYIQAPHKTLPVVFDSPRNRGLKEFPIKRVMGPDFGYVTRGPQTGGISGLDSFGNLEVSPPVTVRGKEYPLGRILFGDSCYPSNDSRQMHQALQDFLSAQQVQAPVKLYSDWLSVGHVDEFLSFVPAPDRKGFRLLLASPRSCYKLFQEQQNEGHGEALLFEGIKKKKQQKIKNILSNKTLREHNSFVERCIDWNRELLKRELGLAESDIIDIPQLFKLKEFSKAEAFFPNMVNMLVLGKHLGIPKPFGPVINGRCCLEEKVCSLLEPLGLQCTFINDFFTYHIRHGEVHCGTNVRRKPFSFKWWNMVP
How it was run: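 Ammonia release from BAEE deimination monitored by o-phthalaldehyde amine coupling (1 h, 25 °C) after EDTA stop. Final conditions: 5 nM tag-free recombinant human PAD4 (E. coli), 2 mM CaCl2, 3 mM BAEE, pH 7.6 MOPS with DTT; 30 min compound preincubation, then 2 h reaction at 25 °C.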

Row | Molecule | IC50 [nM]
1 | COc1cc(C(=O)N2[C@H]3CC[C@@H]2[C@H](N)C3)cc2nc(-c3cc4ccc(N5C[C@H](C)OCS5(=O)=O)nc4n3CC3CC3)c(C)n12 [Example 441, [(1~{R},2~{R},4~{S})-2-amino-7-azabicyclo [2.2.1]heptan-7-yl]-[2-[1-(cyclopropylmethyl)-6-[(6~{S})-6-methyl-3,3-dioxo-1,3,4-oxathiazinan-4-yl]pyrrolo[2,3-b]pyridin-2-yl]-5-methoxy-3-methylimidazo[1,2-a]pyridin-7-yl]methanone] | 73.1
2 | CCc1ccc2cc(-c3nc4cc(C(=O)N5[C@H]6CC[C@@H]5[C@H](N)C6)cc(OC)n4c3C)n(CC3CC3C)c2n1 (stereo partly drawn) [Example 503, [(1~{R},2~{R},4~{S})-2-amino-7-azabicyclo [2.2.1]heptan-7-yl]-[2-[6-ethyl-1-[(2-methylcyclopropyl)methyl]pyrrolo[2,3-b]pyridin-2-yl]-5-methoxy-3-methylimidazo[1,2-a]pyridin-7-yl]methanone] | 115
3 | COc1cc(C(=O)N2CCC[C@@H](N)C2)cc2nc(-c3cc4ccc([C@@H](C)NC(=O)C56CC(F)(C5)C6)nc4n3CC3CC3)c(C)n12 [Example 125, ~{N}-[(1~{R})-1-[2-[7-[(3~{R})-3-aminopiperidine-1-carbonyl]-5-methoxy-3-methylimidazo[1,2-a]pyridin-2-yl]-1-(cyclopropylmethyl)pyrrolo[2,3-b]pyridin-6-yl]ethyl]-3-fluorobicyclo[1.1.1] pentane-1-carboxamide] | 78.7
4 | COc1cc(C(=O)N2[C@H]3CC[C@@H]2[C@H](N)[C@H](O)C3)cc2nc(-c3cc4ccc(N(C(F)F)S(C)(=O)=O)nc4n3CC3CC3)c(C)n12 [Example 311, ~{N}-[2-[7-[(1~{R}, 2~{S},3~{R},5~{S})-2-amino-3-hydroxy-8-azabicyclo[3.2.1]octane-8-carbonyl]-5-methoxy-3-methylimidazo [1,2-a]pyridin-2-yl]-1-(cyclopropylmethyl)pyrrolo [2,3-b]pyridin-6-yl]-~{N}-(difluoromethyl) methanesulfonamide] | 383
5 | COc1ccc2cc(-c3nc4cc(C(=O)N5CCC[C@@H](N)C5)cc(OC)n4c3C)n(CC3CC3)c2n1 [Example 629, [(3~{R})-3-aminopiperidin-1-yl]-[2-[1-(cyclopropylmethyl)-6-methoxypyrrolo[2,3-b]pyridin-2-yl]-5-methoxy-3-methylimidazo[1,2-a]pyridin-7-yl]methanone] | 2270
6 | COc1cc(C(=O)N2CCC[C@@H](N)C2)cc2nc(-c3cc4ccc(N(C(F)F)S(=O)(=O)C5COC5)nc4n3CC3CC3)c(C)n12 [Example 478, ~{N}-[2-[7-[(3~{R})-3-aminopiperidine-1-carbonyl]-5-methoxy-3-methylimidazo[1,2-a]pyridin-2-yl]-1-(cyclopropylmethyl)pyrrolo [2,3-b]pyridin-6-yl]-~{N}-(difluoromethyl)oxetane-3-sulfonamide] | 236
7 | COc1cc(C(=O)N2[C@H]3CC[C@@H]2[C@H](N)C3)cc2nc(-c3cc4ccc([C@@H](C)NC(=O)C56CC(Cl)(C5)C6)nc4n3CC3CC3)c(C)n12 [Example 133, ~{N}-[(1~{R})-1-[2-[7-[(1~{R},2~{R},4~{S})-2-amino-7-azabicyclo[2.2.1]heptane-7-carbonyl]-5-methoxy-3-methylimidazo [1,2-a]pyridin-2-yl]-1-(cyclopropylmethyl)pyrrolo [2,3-b]pyridin-6-yl]ethyl]-3-chlorobicyclo[1.1.1]pentane-1-carboxamide] | 56.1
8 | CC[C@](C)(O)c1ccc2cc(-c3nc4cc(C(=O)N5[C@H]6CC[C@@H]5[C@H](N)C6)cc(OC)n4c3C)n(CC3CC3)c2n1 [Example 565, [(1~{R},2~{R},4~{S})-2-amino-7-azabicyclo [2.2.1]heptan-7-yl]-[2-[1-(cyclopropylmethyl)-6-[(2~{S})-2-hydroxybutan-2-yl]pyrrolo[2,3-b]pyridin-2-yl]-5-methoxy-3-methylimidazo[1,2-a]pyridin-7-yl]methanone] | 159
9 | COc1cc(C(=O)N2[C@H]3CC[C@@H]2[C@H](N)C3)cc2nc(-c3cc4ccc([C@@H](C)NC(=O)C(C)(C)OC)nc4n3CC3CC3)c(C)n12 [Example 172, ~{N}-[(1~{R})-1-[2-[7-[(1~{R},2~{R},4~{S})-2-amino-7-azabicyclo[2.2.1]heptane-7-carbonyl]-5-methoxy-3-methylimidazo [1,2-a]pyridin-2-yl]-1-(cyclopropylmethyl)pyrrolo [2,3-b]pyridin-6-yl]ethyl]-2-methoxy-2-methylpropanamide] | 98.3
10 | COc1cc(C(=O)N2CC[C@@H](OC)[C@@H](N)C2)cc2nc(-c3cc4ccc(N(C(F)F)S(C)(=O)=O)nc4n3CC3CC3)c(C)n12 [Example 335, ~{N}-[2-[7-[(3~{S}, 4~{R})-3-amino-4-methoxypiperidine-1-carbonyl]-5-methoxy-3-methylimidazo [1,2-a]pyridin-2-yl]-1-(cyclopropylmethyl)pyrrolo [2,3-b]pyridin-6-yl]-~{N}-(difluoromethyl) methanesulfonamide] | 178
11 | COc1cc(C(=O)N2C[C@H](N)CCN2C)cc2nc(-c3cc4ccc([C@@H](C)NC(=O)c5ccccc5)nc4n3CC3CC3)c(C)n12 [Example 614, N—((R)-1-(2-(7-((R)-5-amino-2-methylhexahydropyridazine-1-carbonyl)-5-methoxy-3-methylimidazo[1,2-a]pyridin-2-yl)-1-(cyclopropylmethyl)-1H-pyrrolo[2,3-b]pyridin-6-yl)ethyl)benzamide] | 90.2
12 | COc1cc(C(=O)N2[C@H]3CC[C@@H]2[C@H](N)C3)cc2nc(-c3cc4ccc(N5CCCN(C)S5(=O)=O)nc4n3CC3CC3)c(C)n12 [Example 455, [(1~{R},2~{R},4~{S})-2-amino-7-azabicyclo [2.2.1]heptan-7-yl]-[2-[1-(cyclopropylmethyl)-6-(6-methyl-1,1-dioxo-1,2,6-thiadiazinan-2-yl)pyrrolo[2,3-b]pyridin-2-yl]-5-methoxy-3-methylimidazo[1,2-a]pyridin-7-yl]methanone] | 113
13 | ~{N}-[(1~{R})-1-[2-[7- [(1~{R},2~{R},4~{S})-2- amino-7- azabicyclo[2.2.1]heptane-7- carbonyl]- 5-methoxy-3-methylimidazo [1,2-a]pyridin-2-yl]-1- (cyclopropylmethyl)pyrrolo [2,3-b]pyridin-6-yl]ethyl]- 3,3-dimethylcyclobutane-1- carboxamide [Example 71] | 63.4
14 | COc1cc(C(=O)N2[C@H]3CC[C@@H]2[C@H](N)C3)cc2nc(-c3cc4ccc(N(C(F)F)S(C)(=O)=O)nc4n3CC3CC3)c(C3CC3)n12 [Example 385, ~{N}-[2-[7-[(1~{R},2~{R}, 4~{S})-2-amino-7-azabicyclo[2.2.1]heptane-7-carbonyl]-3-cyclopropyl-5-methoxyimidazo[1,2-a]pyridin-2-yl]-1-(cyclopropylmethyl)pyrrolo [2,3-b]pyridin-6-yl]-~{N}-(difluoromethyl) methanesulfonamide] | 156
15 | COc1cc(C(=O)N2[C@H]3CC[C@@H]2[C@H](N)C3)cc2nc(-c3cc4ccc(-c5cncc(F)c5C)nc4n3CC3CC3)c(C)n12 [Example 564, [(1~{R},2~{R},4~{S})-2-amino-7-azabicyclo [2.2.1]heptan-7-yl]-[2-[1-(cyclopropylmethyl)-6-(5-fluoro-4-methylpyridin-3-yl)pyrrolo [2,3-b]pyridin-2-yl]-5-methoxy-3-methylimidazo[1,2-a]pyridin-7-yl]methanone] | 332
